Results taken from patent US20140323504A1, “Pyrazolo[4,3-c]Pyridine Derivatives As Kinase Inhibitors” (Cellzome Limited, priority 2011, published 2014).
pIC50: −log10 of the molar value.

Molecular target: T1, TEC (Homo sapiens, UniProt P42680)
T1 construct: endogenous in cells; host or cells: 1:1 mix of Jurkat and Ramos cell lysates
T1 sequence (P42680 1-631): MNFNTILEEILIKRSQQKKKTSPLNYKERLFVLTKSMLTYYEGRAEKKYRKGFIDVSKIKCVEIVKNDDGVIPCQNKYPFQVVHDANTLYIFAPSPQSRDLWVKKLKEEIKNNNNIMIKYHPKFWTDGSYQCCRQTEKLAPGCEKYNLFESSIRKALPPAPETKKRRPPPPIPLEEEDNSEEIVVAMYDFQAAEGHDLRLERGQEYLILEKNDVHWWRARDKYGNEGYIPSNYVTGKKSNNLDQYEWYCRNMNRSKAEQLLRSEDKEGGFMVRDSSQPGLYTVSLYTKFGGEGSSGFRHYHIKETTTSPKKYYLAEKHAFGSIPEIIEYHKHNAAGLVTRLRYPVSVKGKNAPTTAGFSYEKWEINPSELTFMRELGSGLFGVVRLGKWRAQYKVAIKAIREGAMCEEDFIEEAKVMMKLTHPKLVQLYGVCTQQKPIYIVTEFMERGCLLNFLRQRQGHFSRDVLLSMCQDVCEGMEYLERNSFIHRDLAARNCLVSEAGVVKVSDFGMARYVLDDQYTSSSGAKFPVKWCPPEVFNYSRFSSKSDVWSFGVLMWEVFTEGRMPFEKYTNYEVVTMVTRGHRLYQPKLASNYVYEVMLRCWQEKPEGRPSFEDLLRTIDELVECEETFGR
Test: Kinobeads assay with quantitative mass spectrometry, TEC
Type: binding
Details: Jurkat/Ramos lysate, read-out: TEC inhibition value (IC50)
Protocol: Selected compounds of the present invention as described in the previous examples were tested in a Kinobeads™ assay as described (WO-A 2006/134056; Bantscheff et al., 2007. Nature Bioteclmol. 25, 1035-1044).
Compounds were incubated with cell lysate aliquots (1:1 mix of Jurkat and Ramos cell lysates) for 45 minutes at 4° C. and allowed to bind to the proteins in the lysate sample. Then the Kinobeads™ affinity matrix was added to capture proteins that were not interacting with the previously added compound. After this two hour incubation step at 4° C. beads were separated from the lysate and bead bound proteins were eluted in SDS sample buffer and subsequently separated by SDS-Polyacrylamide gel electrophoresis. […] The TMT reagents are a set of multiplexed, amine-specific, stable isotope reagents that can label peptides in up to six different biological samples enabling simultaneous identification and quantitation of peptides. The combined samples were fractionated using reversed-phase chromatography at pH 11 and fractions were subsequently analyzed with a nano-flow liquid chromatography system coupled online to a tandem mass spectrometer (LC-MSMS) experiment followed by reporter ion quantification in the MSMS spectra (Ross et al., 2004. Mol. Cell. Proteomics 3(12):1154-1169; Dayon et al., 2008. Anal. Chem. 80(8):2921-2931; Thompson et al., 2003. Anal. Chem. 75(8):1895-1904). […]

Row | pIC50 | SMILES
1 | 7.92 | C=CC(=O)Nc1cccc(Cn2ncc3cnc(Nc4cnn(C)c4)nc32)c1 [Example 1, N-(3-((6-((1-Methyl-1H-pyrazol-4-yl)amino)-1H-pyrazolo[3,4-d]pyrimidin-1-yl)methyl)phenyl)acrylamide]
2 | 7.47 | C=CC(=O)Nc1cc(Cn2ncc3cnc(Nc4cnn(C)c4)nc32)ccc1F [Example 2, […]]
